In article PMC6212544, “Identification and Characterization of Novel CFTR Potentiators” (Frontiers in Pharmacology, 2018):

Legend:
G551D CFTR = target: T1, G551D CFTR (Homo sapiens, UniProt P13569, G551D); conditions: ref Jih and Hwang (2013); cited from earlier work
T1 construct: expressed in transfected cells; host or cells: HEK293, transient (jetPEI)

[1] = patients carrying the G551D mutation; ref Ramsey et al., 2011; cited from earlier work
F508del CFTR [2] = target: T2, F508del CFTR (Homo sapiens, UniProt P13569, DEL508-508); assay: YFP halide assay, CFBe41o- cells, low temperature rescued F508del CFTR; format: cell-based; conditions: 27°C 24 h, 10 μM forskolin, read-out: EC50, potentiation of low temperature rescued F508del CFTR
Experimental: CFBe41o- cells were plated in black 384-well microplates at a density of 1,500 cells per well. After 24 h, cells were transduced with adenoviruses containing F508del CFTR and YFP (H148Q/I152L/) F47L using a multiplicity of infection of 30 infectious units per cell for each adenovirus. The next day, for the low temperature corrected assay, cells were incubated at 27°C for 24 h, for the chemically corrected assay cells were treated with corrector for 24 h at 37°C. On the day of analysis, cells were washed five times with Dulbecco’s Phosphate-Buffered Saline (DPBS) containing Ca^2+ and Mg^2+ (Life Technologies) using a Microplate Washer (BioTek). Then, cells were treated with 10 μM forskolin and the desired concentration of potentiator in a volume of 30 μl and the plates were incubated at room temperature for 10 min, a timepoint optimized in previous experiments showing good window (positive control/negative control > 2) and signal to background ratio. The YFP fluorescence was recorded for 2 min, starting immediately before addition of 30 μl NaI buffer (375 mM NaI, 7.5 mM KI, 1.76 mM KH2PO4, 10.1 mM Na2HPO4, 13.75 mM glucose) to the wells, using a FDSS/μCell (Hamamatsu) fluorescence reader with a 480 nm excitation filter and a 540 nm emission filter. The capacity of potentiators to increase CFTR channel function was expressed as 1-[fluorescence 36 s after NaI addition (F)/fluorescence before NaI addition (F0)], a timepoint optimized previously, resulting in an optimal signal window. Data was normalized using the formula: normalized response = 100^∗ (absolute response – negative control response)/(VX770 response – negative response) as such, VX770 response corresponds to 100. For Dose-response experiments, data was fitted using a 4 parameter hill function of the form Response = Bottom + (Top-Bottom)/(1 + 10ˆ((LogEC50-concentration)^∗HillSlope)) to determine EC50 values.

F508del CFTR [3] = target: T2, F508del CFTR; assay: Cell surface expression assay, HRP-tagged F508del CFTR in CFBe41o- cells; format: cell-based; parameters: expressed in transfected cells; conditions: 24 h co-incubation with 10 μM VX809, concentration range of potentiator
Experimental: CFBE41o^- TetON cells expressing HRP tagged F508del-CFTR ([Veit et al., 2012]) were seeded at a density of 4,000 cells per well in white 384-well plates (Greiner). Medium containing 500 ng/ml doxycycline was used to induce expression of the F508del-CFTR–HRP construct. After 3 days, cells were treated with corrector and/or potentiator compounds and transferred to an incubator at 33°C. On day 4, cells were washed 5 times with PBS containing Ca^2+ and Mg^2+ using a Bio-Tek plate washer and incubated with a chemiluminescent HRP substrate (SuperSignal West Pico Chemiluminescent Substrate, Thermo Scientific) for 15 min. Chemiluminescence was measured using an Envision plate reader (Perkin Elmer).

F508del CFTR [4] = target: T2, F508del CFTR; assay: TECC on corrector rescued F508del/F508del primary HBE cells; format: cell-based; parameters: endogenous in cells; host or cells: primary human bronchial epithelial cells, F508del/F508del donors (McGill University; University of North Carolina)
Experimental: Bronchial epithelial cells isolated from transplanted lungs from wild-type (WT), CF patients homozygous for the F508del mutation or heterozygous G551D/F508del or R334W/F508del patients, were obtained from McGill University (Montreal, Canada) and University of North Carolina (Chapel Hill, NC, United States). Cells were isolated from lungs obtained from donors undergoing a planned transplantation. These primary cells were cultured directly on type IV collagen-coated polycarbonate Transwell supports with a diameter of 6.5 mm and pore size of 0.4 μm (Costar, #3397) for 18–25 days in air liquid (ali) interface essentially as previously described ([Fulcher et al., 2005]). Trans-epithelial clamp circuit (TECC) recordings were performed using the TECC instrument developed and sold by EP Design (Bertem, Belgium). During the recording, the epithelial cells were bathed in a NaCl-Ringer solution (120 mM NaCl, 20 mM HEPES, 1.2 mM CaCl2, 1.2 mM MgCl2, 0.8 mM KH2PO4, 0.8 mM K2HPO4, 5 mM glucose, pH 7.4) on both the basolateral (640 μl) and the apical side (160 μl) and kept at 37°C. Apical amiloride was used to inhibit the endogenous ENaC currents (100 μM) while forskolin (10 μM) was applied on both the apical and basolateral sides to stimulate CFTR. All triggers and compounds used during the experiment were first dissolved in DMSO to a 1000 X concentrated solution, just prior to treatment a 10 X stock was prepared in the NaCl-Ringer solution which was used for addition of the correct concentration of trigger and or compound during the experiment. When using the F508del CFTR mutant, VX809 (3 μM) or GLPG2222 (1 μM) corrector was added on the basolateral side for 24 h to partially rescue F508del CFTR before adding the potentiator. For chronic experiments, the potentiator range was also added to the cells for 24 h and reapplied in the NaCl-ringer buffer prior to the electrophysiological recording. Measurements were done during a 20 min timeframe with recordings every 2 min. The transepithelial potential (PD) and transepithelial resistance (Rt) were measured in an open circuit and transformed to Ieq using Ohm’s law. The increase in Ieq (Δ Ieq) was used as a measure for the increased CFTR activity. EC50 values were generated by measuring impact of different concentrations of compound on Ieq in primary cells. For this purpose each transwell was treated with a different compound concentration. CFTRInh-172 was used at 10 μM to assess the specificity of the response. […] Data was fitted using a 3 parameter hill function of the form Response = Bottom + (Top-Bottom)/(1 + 10ˆ((LogEC50-concentration))) to determine EC50 values.

T2 sequence (P13569 with tags, fused parts or gaps DEL508-508): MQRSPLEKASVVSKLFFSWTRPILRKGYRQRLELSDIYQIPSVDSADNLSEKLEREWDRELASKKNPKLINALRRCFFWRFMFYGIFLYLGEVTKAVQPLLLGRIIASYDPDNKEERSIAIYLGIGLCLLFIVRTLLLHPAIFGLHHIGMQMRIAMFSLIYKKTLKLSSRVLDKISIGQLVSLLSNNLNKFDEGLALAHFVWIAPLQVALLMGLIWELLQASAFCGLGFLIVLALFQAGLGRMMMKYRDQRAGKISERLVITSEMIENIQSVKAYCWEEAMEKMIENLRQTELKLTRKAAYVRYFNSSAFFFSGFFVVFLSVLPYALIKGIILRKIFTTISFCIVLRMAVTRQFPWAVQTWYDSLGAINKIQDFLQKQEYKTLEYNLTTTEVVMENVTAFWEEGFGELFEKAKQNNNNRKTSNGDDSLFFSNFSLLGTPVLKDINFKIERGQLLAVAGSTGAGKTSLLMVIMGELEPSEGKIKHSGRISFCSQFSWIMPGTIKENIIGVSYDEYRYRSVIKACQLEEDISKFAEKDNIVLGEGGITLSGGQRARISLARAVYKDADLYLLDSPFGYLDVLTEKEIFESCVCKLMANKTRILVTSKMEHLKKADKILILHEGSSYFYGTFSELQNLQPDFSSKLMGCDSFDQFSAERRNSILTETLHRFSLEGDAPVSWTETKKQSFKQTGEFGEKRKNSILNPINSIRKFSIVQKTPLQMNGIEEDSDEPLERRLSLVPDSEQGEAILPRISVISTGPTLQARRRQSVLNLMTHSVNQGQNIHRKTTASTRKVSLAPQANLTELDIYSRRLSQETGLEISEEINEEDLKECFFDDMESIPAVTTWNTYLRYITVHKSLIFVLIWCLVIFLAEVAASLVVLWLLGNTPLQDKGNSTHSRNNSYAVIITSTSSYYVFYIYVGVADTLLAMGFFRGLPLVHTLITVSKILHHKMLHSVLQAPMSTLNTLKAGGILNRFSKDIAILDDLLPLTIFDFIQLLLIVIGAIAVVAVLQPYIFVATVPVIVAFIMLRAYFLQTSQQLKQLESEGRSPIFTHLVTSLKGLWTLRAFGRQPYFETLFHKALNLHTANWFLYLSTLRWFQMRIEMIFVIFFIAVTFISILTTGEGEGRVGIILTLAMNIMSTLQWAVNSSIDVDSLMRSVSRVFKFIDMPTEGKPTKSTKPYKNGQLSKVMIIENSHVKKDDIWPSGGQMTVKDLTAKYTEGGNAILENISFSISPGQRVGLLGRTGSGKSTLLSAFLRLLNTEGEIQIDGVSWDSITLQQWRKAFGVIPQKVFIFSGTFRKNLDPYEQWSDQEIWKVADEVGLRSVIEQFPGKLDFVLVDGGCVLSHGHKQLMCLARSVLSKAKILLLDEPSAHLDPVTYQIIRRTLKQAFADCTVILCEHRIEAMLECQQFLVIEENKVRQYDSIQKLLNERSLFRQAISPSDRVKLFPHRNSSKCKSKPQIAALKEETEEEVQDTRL
T1 sequence (P13569 whole entry G551D): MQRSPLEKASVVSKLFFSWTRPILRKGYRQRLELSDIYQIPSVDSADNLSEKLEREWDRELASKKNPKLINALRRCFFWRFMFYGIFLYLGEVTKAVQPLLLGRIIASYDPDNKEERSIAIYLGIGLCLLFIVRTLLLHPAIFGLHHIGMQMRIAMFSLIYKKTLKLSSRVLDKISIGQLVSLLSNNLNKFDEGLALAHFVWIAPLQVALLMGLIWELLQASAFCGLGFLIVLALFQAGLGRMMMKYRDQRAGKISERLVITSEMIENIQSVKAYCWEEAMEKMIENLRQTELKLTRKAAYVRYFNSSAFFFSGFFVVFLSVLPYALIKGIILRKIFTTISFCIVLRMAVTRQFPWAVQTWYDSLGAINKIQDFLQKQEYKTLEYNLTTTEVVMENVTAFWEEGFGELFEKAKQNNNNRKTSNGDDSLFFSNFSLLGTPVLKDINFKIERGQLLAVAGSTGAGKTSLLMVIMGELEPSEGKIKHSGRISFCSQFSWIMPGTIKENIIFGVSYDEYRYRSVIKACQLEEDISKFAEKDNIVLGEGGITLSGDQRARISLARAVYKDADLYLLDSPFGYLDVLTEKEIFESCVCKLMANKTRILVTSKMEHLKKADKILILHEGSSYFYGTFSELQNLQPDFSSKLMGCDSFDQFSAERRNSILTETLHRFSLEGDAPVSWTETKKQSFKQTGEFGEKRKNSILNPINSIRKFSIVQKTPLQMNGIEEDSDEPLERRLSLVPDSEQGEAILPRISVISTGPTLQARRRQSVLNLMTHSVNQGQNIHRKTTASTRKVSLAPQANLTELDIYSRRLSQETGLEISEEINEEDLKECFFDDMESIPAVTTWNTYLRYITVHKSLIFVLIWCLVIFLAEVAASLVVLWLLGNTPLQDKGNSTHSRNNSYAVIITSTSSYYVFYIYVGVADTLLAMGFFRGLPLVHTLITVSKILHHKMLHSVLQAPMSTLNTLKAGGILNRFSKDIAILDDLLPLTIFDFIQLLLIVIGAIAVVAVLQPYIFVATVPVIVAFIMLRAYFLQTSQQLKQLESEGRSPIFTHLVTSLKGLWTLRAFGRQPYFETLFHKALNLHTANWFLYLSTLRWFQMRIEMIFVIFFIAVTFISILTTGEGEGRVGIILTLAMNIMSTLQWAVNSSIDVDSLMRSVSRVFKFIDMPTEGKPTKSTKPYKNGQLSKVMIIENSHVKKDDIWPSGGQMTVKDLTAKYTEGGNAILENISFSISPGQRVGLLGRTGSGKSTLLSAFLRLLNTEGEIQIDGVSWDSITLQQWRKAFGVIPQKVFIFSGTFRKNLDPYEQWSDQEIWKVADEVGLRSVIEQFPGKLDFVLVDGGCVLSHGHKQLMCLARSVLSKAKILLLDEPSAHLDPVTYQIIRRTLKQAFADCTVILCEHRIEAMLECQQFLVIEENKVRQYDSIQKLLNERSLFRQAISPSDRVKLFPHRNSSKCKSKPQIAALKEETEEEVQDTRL

## CC(C)(C)c1cc(C(C)(C)C)c(NC(=O)c2c[nH]c3ccccc3c2=O)cc1O [VX770, N -(2,4-Di-tert-butyl-5-hydroxyphenyl)-4-oxo-1,4-dihydroquinoline-3-carboxamide, reference compound]
G551D CFTR
  Increase of macroscopic G551D CFTR current: 10 fold
[1]
  Improvement of lung function: 10.6%
F508del CFTR [2]
  EC50: 126 ± 10.9 nM
F508del CFTR [3]
  Effect on cell surface expression of VX809 rescued F508del CFTR: reduces the level of cell surface expressed F508del CFTR at all concentrations tested
F508del CFTR [4]; 10 μM potentiator, corrected F508del/F508del HBE, 24 h
  Decrease in corrected F508del CFTR channel activity in chronic versus acute setting: decrease in F508del CFTR channel activity
F508del CFTR [4]; VX809 3 μM 24 h, acute potentiator addition, 10 μM forskolin, read-out: EC50 on VX809 corrected F508del/F508del HBEs (TECC)
  EC50: 80.7 ± 21.7 nM
